Drawing on a melting point compilation (Tetko et al.; mined from patent text by program, amines drawn as free bases though some values may be those of a salt), this text covers melting point for 88 molecules.

Take `CCCn1c(=O)c2[nH]c(CC34CC5CC(CC(C5)C3)C4)nc2n(CCC)c1=O`: the melting point fell in the range of 178 to 180 °C.

As for `CN1CCNC1=C(Cl)[N+](=O)[O-]`, the melting point lay within 145 to 146 °C.

`CCn1nc(C)c(NC(N)=S)c1C` returned a melting point of 248 °C.

In the case of `O=C(NCCCc1ccncc1)N(CCC12CC3CC(CC(C3)C1)C2)CC(F)(F)F`, the melting point lay within 106 to 107 °C.

The molecule `CN1C(=O)CC[C@]2(C)c3ccc(-c4cccc(C=O)c4)cc3CC[C@@H]12` displayed a melting point of 163 °C.

`Cc1ccc(NC(=O)NCc2ccc3c(c2)CN(C2CCC(=O)NC2=O)C3=O)cc1O` (stereo not drawn) showed a melting point of 273 to 275 °C.

As for `Cc1cc(CNC(=O)c2cc(-c3ccc(-c4ccccc4)cc3)nn2C)ccc1OC(C)(C)C(=O)O`, the melting point fell in the range of 90 to 95 °C.

`CC(C)n1cc(C(=O)NCc2ccc(Cl)cc2)c(=O)c2cc(C#CCO)sc21` returned a melting point of 190 to 196 °C.

The molecule `OC(CCc1ccccc1)c1cnc2sc3cc(F)ccc3n12` (stereo not drawn) yielded a melting point of 195 to 196 °C.

With `CN(c1cccc2cc(-c3ncc(CS(C)(=O)=O)s3)[nH]c12)S(=O)(=O)c1cccs1`, the melting point was 242 to 243 °C.

On to `CCOC(=O)C=Cc1ccc(NCCOC)cc1`, for which the melting point lay in the range of 49.9 to 53.4 °C.

The molecule `CCCCn1cccc1C(=O)N(C)C` had a melting point of 132 °C.

`c1cc(COc2ccc(OCc3ccc4ccccc4n3)cc2)cc(OCc2nnn[nH]2)c1` came in with a melting point of 131 to 132 °C.

Consider `C=C(COC(=O)CCCCCCBr)COC(=O)NCCCCCCCCCCCCCCCCCC`, for which the melting point came out at 49 °C.

Consider `CN1C(=O)N(c2ccc([N+](=O)[O-])c(C(F)(F)F)c2)C(=O)C1(C)CF` (stereo not drawn), for which the melting point lay within 118 to 119 °C.

For `CNC(=C[N+](=O)[O-])NCCSCc1csc(CN2CCCCC2)c1`, the melting point fell in the range of 101 to 103 °C.

`COC1=C(c2cccc(C(F)(F)F)c2)C(=O)N(C(C)(C)C)C1`: the melting point was found to be 129 °C.

On to `O=C1[C@H]2CCC[C@H]2N(C(=O)CCCCl)c2ccccc2N1Cc1ccccc1` (relative stereo), for which the melting point is 169 to 170 °C.

As to `CN(C)C(=O)Sc1ccc(Br)cc1C=O`, the melting point is 118 to 120 °C.

For `O=C1CN(N=Cc2ncc(-c3ccc(F)cc3)o2)C(=O)N1`, the melting point lay in the range of 281 to 282 °C.

With `Cn1c(=O)nc(-c2ccccc2F)c2cc(Cl)sc21`, the melting point lay within 192 to 194 °C.

As for `O=Cc1cccc([N+]([O-])=Cc2cccc([N+](=O)[O-])c2)c1`, the melting point was 195 to 197 °C.

`CCOC(=O)c1c(CN(CC)CC)nc2sc3c(c2c1-c1ccc(OC)c(OC)c1)CCN(C(=O)Nc1ccccc1)C3` had a melting point of 154 to 155 °C.

`O=S(=O)(Cc1ccccc1)n1c2cc(O)c(O)cc2c2ccc(O)c(O)c21` returned a melting point of 216 to 218 °C.

In turn, `COc1ccccc1I` displayed a melting point of 44.5 to 46.5 °C.

`COC(=O)c1c(-c2ccccc2)nc2c(c1N)c1c(n2Cc2ccc(OC)cc2)CCCC1` registered a melting point of 192 to 194 °C.

In the case of `CC(=O)NCCC1CCc2ccn3nc(-c4ccccc4)cc3c21` (stereo not drawn), the melting point lay within 159 to 160 °C.

`COc1ccc(C2(Cl)CC(CNC(C)(C)C)=Nc3sc4c(c32)CCNC4)cc1OC` (stereo not drawn) had a melting point of 162 to 163 °C.

In turn, `CNC(=O)c1ccccc1S(=O)(=O)Cc1c(O[C@H](Cn2ccnc2)c2ccccc2)ccc2c1CCCC2=O` had a melting point of 249 to 251 °C.

Molecule `CCCc1nc(N)nc(N)c1N1CCN(c2ccc(C(=O)N[C@@H](CCC(=O)O)C(=O)O)cc2)CC1` came in with a melting point of 280 to 284 °C.

As for `CCCc1c(OCCCCCCC#N)ccc(C(C)=O)c1O`, the melting point lay within 64 to 66 °C.

The molecule `COc1ccc(N)c(-c2ccc3cc(OC)c(OC)cc3c2)c1` showed a melting point of 158 to 160 °C.

`CCSc1cn(-c2ccccn2)c2c1C(=O)CC(C)(C)C2` displayed a melting point of 158 to 159 °C.

For `COC(=O)c1ccc(NCc2ccccc2)cn1`, the melting point is 104 to 107 °C.

`Cc1cccc(-c2cc3cnc(N)nc3nc2N)c1C` showed a melting point of 330 to 333 °C.

Consider `CNC1=CC(=O)C(Nc2ncnc3cc(OC)c(OC)cc23)=CC1=O`, for which the melting point fell in the range of 283 to 285 °C.

`CC(=O)NS(=O)(=O)c1ccc(N2CCN(CC[C@@H]3OCCc4ccccc43)CC2)cc1` showed a melting point of 160 to 161 °C.

Molecule `CC12CCC(=O)C(CSc3ccccc3)=C1CCC1C2CCC2(C)C1C=CC2(C)O` (stereo not drawn) returned a melting point of 147 °C.

Regarding `OC1CN(CCCOCCc2ccc3sccc3c2)C1`, the melting point was in the range of 60 to 62 °C.

As for `CON=C(C)C(=NOCc1ccccc1)C(=O)O`, the melting point fell in the range of 88 to 89 °C.

Take `CN(Cc1ccccc1)C1CCN(C(=O)c2ccc(-n3cncn3)cc2)CC1`: the melting point is 168 to 169 °C.

With `CCn1cc(Cl)c2cnc(NC(=O)c3ccc([C@](C)(O)CO)cc3)cc21`, the melting point is 223 to 224 °C.

Turning to `CCCCc1nc2ccc(C(=O)O)cc2n1Cc1ccccc1Cl`, the melting point was 238 to 241 °C.

As to `CCCCC(C(=O)O)c1cccc(C(=O)c2cc3cc(C(=O)O)sc3s2)c1` (stereo not drawn), the melting point is 208 °C.

On to `CCOc1nc2cc(N)ccc2c(=O)o1`, for which the melting point fell in the range of 185 to 187 °C.

On to `O=c1[nH]c2cc(Cl)ccc2c(O)c1-c1cccc(Oc2ccccn2)c1`, for which the melting point fell in the range of 269 to 271 °C.

As to `CC(C)C(=O)Nc1ccc2oc3c(c2c1)CCCC3`, the melting point lay within 206 to 208 °C.

`CC(NC(=O)OC(C)(C)C)C(=O)Nc1cc(OCC(F)(F)F)ccc1-c1cccnc1` (stereo not drawn) had a melting point of 149 to 152 °C.

The molecule `O=C(CC(O)c1ccncc1)c1ccccc1O` (stereo not drawn) displayed a melting point of 150 °C.

For `Cc1cc(C(=O)N2Cc3cccn3Cc3ccccc32)ccc1NC(=O)c1ccc(Cl)cc1Cl`, the melting point is 213 to 215 °C.

For the molecule `CCc1noc(-c2cc3c(-c4cccs4)nccc3[nH]c2=O)n1`, the melting point lay within 265 to 268 °C.

Molecule `Cn1cc(-c2ccc(F)cc2)nc1SCCSc1nc(-c2ccc(F)cc2)c(-c2ccc(F)cc2)[nH]1` registered a melting point of 202 to 205 °C.

In the case of `Cc1cc(CNC(=O)c2cc(-c3ccc(C(C)(C)C)cc3)n(Cc3ccccc3)n2)ccc1OC(C)(C)C(=O)O`, the melting point was 88 °C.

Turning to `CCC1c2c(ncn2CC)CCN1C(=O)NC(C)C` (stereo not drawn), the melting point was 155 °C.

The molecule `COc1ccc(NC(=O)c2ccc(F)c(F)c2)cc1NS(=O)(=O)c1cccc(N)c1` had a melting point of 205 to 209 °C.

In turn, `Nc1nc(N)nc(-c2ccc(-c3ccccc3[N+](=O)[O-])cc2)n1` showed a melting point greater than 250 °C.

Turning to `O=C(O)c1cnc2c3ccccc3c(O)cn2c1=O`, the melting point lay within 273 to 276 °C.

On to `O=C(NC1CCOCC1)c1ccc(-c2cc(-c3c(-c4cccc(Cl)c4)nc4ccccn34)ccn2)cc1`, for which the melting point is 234 °C.

For the molecule `CCOC(=O)CC(=O)C=Cc1ccc(OC)cc1`, the melting point worked out at 69 °C.

For the molecule `Cc1cc(C(F)(F)C(F)(F)F)ccc1NC(=O)c1cccc(I)c1C(=O)NC(C)(C)CS(C)(=O)=O`, the melting point was 143 to 144 °C.

Take `CCOC(=O)c1cccc2c1CCC2C#N` (stereo not drawn): the melting point lay in the range of 93 to 95.5 °C.

For the molecule `O=C1c2nccc(Br)c2C(=O)c2c(-c3ccccc3NC(=O)C(F)(F)F)ccnc21`, the melting point is 145 °C.

`CN(C)CCOc1ccc(CNC(=O)c2ccccc2N)cc1`: the melting point lay within 104 to 105 °C.

The molecule `CNC1(C2CCCCC2)C(=O)Nc2ccc(Cl)cc21` (stereo not drawn) came in with a melting point of 195 to 198 °C.

In the case of `CCOC(=O)C1(NS(=O)(=O)c2ccc3c(Cl)cnc(Cl)c3c2)CCCC1`, the melting point is 127 to 129 °C.

Take `O=C1OCN(C(=O)OCc2ccccc2)[C@H]1CCCl`: the melting point lay within 75 to 77 °C.

The molecule `COc1cc(NS(C)(=O)=O)c(I)cc1N` yielded a melting point of 110 to 112 °C.

As for `O=c1ncc(F)cn1CCO`, the melting point was 134 to 136 °C.

`Cc1c(C)c2c(c(C)c1NC(=O)CC(C)(C)C)OC(C)(C)C2Cc1ccccc1` (stereo not drawn) displayed a melting point of 209 to 210 °C.

The molecule `COc1ccc(C[C@H](C)NS(=O)(=O)c2ccccc2)cc1` registered a melting point of 74.5 to 76 °C.

In turn, `O=[N+]([O-])c1cc(NCCO)ccc1NCCO` displayed a melting point of 107 °C.

`CCC(=O)N1N=C(c2ccc(N)c(C)c2)c2cc(Cl)ccc2C=C1C` showed a melting point of 218 to 221 °C.

`COc1cccc(Cc2nc3n(-c4c(Cl)cc(Cl)cc4Cl)[nH]c(SC)c-3c(=O)n2)c1` gave a melting point of 245 to 248 °C.

`CCN(CC)Cc1cc(Nc2snc3ccccc23)ccc1O` displayed a melting point of 164 to 165 °C.

In the case of `Cc1cccc(C(=O)c2[nH]c3cc(Cl)ccc3c2NC(N)=O)c1`, the melting point is greater than 280 °C.

For the molecule `Clc1ccc2nc(CN3CCN(c4ccccc4)CC3)[nH]c2c1`, the melting point was 198 to 201 °C.

The molecule `COc1cc(C#Cc2ccccc2)c(OC)cc1C#Cc1ccccc1` showed a melting point of 172 to 174 °C.

As for `O=C1NCC(=O)c2c(ncn2C2OC(COC(=O)c3ccccc3)C(OC(=O)c3ccccc3)C2OC(=O)c2ccccc2)N1` (stereo not drawn), the melting point turned out to be 239 °C.

`Cc1ccc(NC(=O)c2ccc(O)c([N+](=O)[O-])c2)cc1C` showed a melting point of 209 to 212 °C.

Molecule `O=C(O)CCCN1CCN(C(=O)c2cc(C(F)(F)F)cc(C(F)(F)F)c2)[C@H](Cc2c[nH]c3ccccc23)C1` yielded a melting point of 112 to 120 °C.

Molecule `CCOc1cccc(-c2ccc(C3CCN(S(=O)(=O)C(C)(C)C(=O)O)CC3)cc2C)n1` returned a melting point of 178 to 179 °C.

In the case of `CC(C)(C)OC(=O)NCC(CC(=O)O)c1ccc(Cl)cc1` (stereo not drawn), the melting point lay in the range of 139 to 141 °C.

As for `Cc1nc2sccn2c(=O)c1CCN1CCC(=C2c3ccc(F)cc3CCn3ncnc32)CC1`, the melting point was determined as 162 °C.

In turn, `COc1ccc(CC(NC(=O)OC(C)(C)C)C(=O)O)cc1` (stereo not drawn) came in with a melting point of 94 to 96 °C.

As to `O=C(NC(NC(=S)Nc1cccnc1)C(Cl)(Cl)Cl)c1ccc(I)cc1` (stereo not drawn), the melting point lay in the range of 197 to 199 °C.

As to `COc1ccc(CN2C(=O)C(C)(c3cc(NC(N)=O)ccc3Cl)c3cc(Cl)ccc32)c(OC)c1` (stereo not drawn), the melting point is 254 °C.

Molecule `C#CCNC1=NS(=O)(=O)N=C1NCCSCc1nc[nH]c1C` returned a melting point of 82 to 103 °C.

`CSc1cccc(Oc2ncccc2C(=O)NCc2ccc(C(C)(C)O)cc2)c1` registered a melting point of 107 to 109 °C.

In general, melting point refers to the temperature, or range, at which the solid turns liquid.
